{
  "source": "paper PMC9316317",
  "about": "“Reducing the Kidney Uptake of High Contrast CXCR4 PET Imaging Agents via Linker Modifications” (Pharmaceutics, 2022)",
  "key": {"[1]": {"conditions": "quoted in discussion, approximate; ammonium salt of N-methylpiperidine; carboxylate in aspartate; no reference given; cited from earlier work", "description": "The placement of three consecutive charged amino acids may increase the pKa of the neighboring carboxylate due to unfavorable electrostatic repulsions. The sulfonate has a lower pKa than a carboxylate (approximately −1.7 versus 1.9 in aspartate), and as such, may be able to better retain its negative charge, thereby increasing the excretion of the radiotracer from the kidneys. However, there was no difference in LogD7.4 values between [^68Ga]Ga-BL02 and [^68Ga]Ga-BL31. The increased capacity to hold a negative cha ..."}, "[2]": {"experiment": "in vivo", "conditions": "male, NOD.Cg-Rag1tm1Mom Il2rgtm1Wjl/SzJ (NRG), mouse, iv, total radioactivity", "protocol": "(§1) Male NOD.Cg-Rag1tm1Mom Il2rgtm1Wjl/SzJ (NRG) mice were obtained from an in-house breeding colony at the Animal Resource Centre of the BC Cancer Research Centre, Vancouver, Canada. Mice (6–10 weeks old, 25–30 g weight) were subcutaneously inoculated with 5 × 10^6 Daudi cells (100 μL; 1:1 ratio of PBS/Matrigel) on the left flank.\n(§2) Additional groups of mice received 7.5 µg (0.25–0.3 mg/kg) LY2510924 as a blocking control i.p. 15 min before radiotracer injection, and euthanized 1 h p.i. Tissues were harvested, washed in PBS, blotted dry, and weighed, and radioactivity was counted on a Hidex AMG Automatic Gamma Counter. The counts were decay corrected, converted to absolute units using a calibration curve, and expressed as percent injected dose per gram of tissue (%ID/g)."}, "[3]": {"test_system": "CXCR4-expressing Daudi xenograft mice", "conditions": "mouse, in vivo, iv", "protocol": "as §1, §2"}, "[4]": {"test_system": "mCXCR4", "design": "method as in PMID 29212254", "conditions": "cited from earlier work"}},
  "note": "Where two headings read alike, the source gives them in different places. Where a SMILES comes first, the peptide text is derived from it. Bridges are numbered along the chain shown (N, C = ends). Side-chain parts run from the residue outwards. [ ]: non-standard residue; d: D form. The star is where a group is joined. DOTA = O=C(O)CN1CCN(CC(=O)O)CCN(CC(=O)*)CCN(CC(=O)O)CC1; 2Nal = N[C@@H](Cc1ccc2ccccc2c1)C(=O)O; Lys(iPr) = CC(C)NCCCC[C@H](N)C(=O)O",
  "data": [
    {"molecule": "CN1CCCCC1", "note": "[N-methylpiperidine]", "values": [
      {"measurement": "pKa", "setting": "[1]", "value": "approximately 10.08"}
    ]},
    {"molecule": "CC(C)NCCCC[C@@H]1NC(=O)[C@H](Cc2ccc(O)cc2)NC(=O)[C@H](Cc2ccccc2)NC(=O)CC[C@H](C(=O)N[C@@H](CCCCNC(C)C)C(=O)N[C@@H](CCCCNC(=O)[C@H](CCC(=O)O)NC(=O)[C@H](CCC(=O)O)NC(=O)[C@H](CCC(=O)O)NC(=O)CN2CCN(CC(=O)O)CCN(CC(=O)O)CCN(CC(=O)O)CC2)C(N)=O)NC(=O)CNC(=O)[C@H](Cc2ccc3ccccc3c2)NC(=O)[C@@H](CCCNC(=N)N)NC1=O", "note": "[[68Ga]Ga-BL02, metal not drawn] (FY[Lys(iPr)][dR][2Nal]G[dE][Lys(iPr)]K([Glu-Glu-Glu-DOTA])-NH2; lactam N-7 (inferred); C-terminus assumed)", "values": [
      {"measurement": "tissue uptake at 1 h", "setting": "[2]; Kidney uptake", "value": "3.81 ± 0.86", "unit": "%ID/g"},
      {"measurement": "Blood uptake", "setting": "[3]; 1 h", "value": "0.27 ± 0.06", "unit": "%ID/g"},
      {"measurement": "Liver uptake", "setting": "[3]; 1 h", "value": "0.57 ± 0.07", "unit": "%ID/g"},
      {"measurement": "Lung uptake", "setting": "[3]; 1 h", "value": "0.45 ± 0.08", "unit": "%ID/g"},
      {"measurement": "Spleen uptake", "setting": "[3]; 1 h", "value": "0.47 ± 0.22", "unit": "%ID/g"},
      {"measurement": "Kidney uptake", "setting": "[3]; 2 h", "value": "3.40 ± 0.51", "unit": "%ID/g"},
      {"measurement": "Liver uptake", "setting": "[3]; 2 h", "value": "0.54 ± 0.04", "unit": "%ID/g"},
      {"measurement": "Lung uptake", "setting": "[3]; 2 h", "value": "0.27 ± 0.09", "unit": "%ID/g"}
    ]},
    {"molecule": "CC(C)NCCCC[C@@H]1NC(=O)[C@H](Cc2ccc(O)cc2)NC(=O)[C@H](Cc2ccccc2)NC(=O)CC[C@H](C(=O)N[C@@H](CCCCNC(C)C)C(=O)N[C@@H](CCCCNC(=O)[C@@H](CCC(=O)O)NC(=O)[C@@H](CCC(=O)O)NC(=O)[C@@H](CCC(=O)O)NC(=O)CN2CCN(CC(=O)O)CCN(CC(=O)O)CCN(CC(=O)O)CC2)C(N)=O)NC(=O)CNC(=O)[C@H](Cc2ccc3ccccc3c2)NC(=O)[C@@H](CCCNC(=N)N)NC1=O", "note": "[[68Ga]Ga-BL20, metal not drawn] (FY[Lys(iPr)][dR][2Nal]G[dE][Lys(iPr)]K([dE-dE-dE-DOTA])-NH2; lactam N-7)", "values": [
      {"measurement": "tissue uptake at 1 h", "setting": "[2]; Tumor uptake (Daudi xenograft)", "value": 0.59, "unit": "%ID/g"}
    ]},
    {"molecule": "N[C@@H](CC(=O)O)C(=O)O", "note": "[aspartate]", "values": [
      {"measurement": "pKa", "setting": "[1]", "value": "~1.9"}
    ]},
    {"molecule": "LY2510924", "values": [
      {"measurement": "decrease in affinity to mCXCR4 as compared to hCXCR4", "setting": "[4]", "value": "> 1000", "unit": "fold"}
    ]}
  ]
}
